Measured values from paper PMC5853561, “Affinity purification with metabolomic and proteomic analysis unravels diverse roles of nucleoside diphosphate kinases” (Journal of Experimental Botany, 2017).

Legend:
[1] = biological target: T1, NDPK1 recombinant protein (AtNDPK1) (Arabidopsis thaliana, UniProt P39207); assay: coupled pyruvate kinase-lactate dehydrogenase assay, NADH at […] nm; assay type: biochemical; conditions: inhibitor; 500 uM cGMP; ATP and 4 mM TDP as substrates
T1 construct: gene NDK1; recombinant protein from commercial supplier (MyBioSource)
T1 sequence (P39207 1-149): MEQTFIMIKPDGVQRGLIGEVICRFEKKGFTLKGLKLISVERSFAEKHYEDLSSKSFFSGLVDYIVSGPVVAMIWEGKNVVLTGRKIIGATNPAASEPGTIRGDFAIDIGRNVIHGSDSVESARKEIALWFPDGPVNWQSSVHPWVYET

[2] = biological target: T1, NDPK1 recombinant protein (AtNDPK1); assay: as above; assay type: biochemical; conditions: phosphate acceptor, ATP as donor; 4 mM TDP

specific activity, % of control at 500 uM [1]	Compound	coupled pyruvate kinase-lactate dehydrogenase assay, NADH at 340 nm [2]
51%	Nc1nc2c(ncn2[C@@H]2O[C@@H]3COP(=O)(O)O[C@H]3[C@H]2O)c(=O)[nH]1 [3',5'-cGMP]	
	Cc1cn([C@H]2C[C@H](O)[C@@H](COP(=O)(O)OP(=O)(O)O)O2)c(=O)[nH]c1=O [TDP]	TDP was used as a NDPK1 substrate and phosphate group acceptor
